Experimental findings from US4623535A, “Leukotriene antagonists” (SmithKline Beckman Corporation, priority 1984, dated 1986) are described below.

The assay concerns the target T1, leukotriene D4 (LTD4) induced contraction of guinea pig tracheal spiral strips (Cavia porcellus, UniProt Q2NNR5).
T1 construct: Guinea pig (adult male albino Hartley strain) tracheal spiral strips; from tissue; host or cells: guinea pig trachea (spiral strips, adult male albino Hartley strain)
T1 sequence (Q2NNR5 1-340): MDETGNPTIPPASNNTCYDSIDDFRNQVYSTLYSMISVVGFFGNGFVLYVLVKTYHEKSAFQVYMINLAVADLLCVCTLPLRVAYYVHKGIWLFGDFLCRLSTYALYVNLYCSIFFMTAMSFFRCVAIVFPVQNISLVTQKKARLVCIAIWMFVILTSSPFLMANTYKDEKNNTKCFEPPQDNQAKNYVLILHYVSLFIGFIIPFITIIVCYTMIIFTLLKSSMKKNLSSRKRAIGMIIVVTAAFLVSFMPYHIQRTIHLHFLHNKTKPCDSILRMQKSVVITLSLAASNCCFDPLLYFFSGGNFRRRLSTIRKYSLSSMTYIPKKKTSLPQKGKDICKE
Briefly: Inhibition of leukotriene (LTD4) induced contraction of guinea pig tracheal tissues in vitro. Format: cell-based, guinea pig (adult male albino Hartley strain). Particulars: LTD4 agonist, 30 min pretreatment with test compound, meclofenamic acid 1 μM, EC30 relative to carbachol (10 μM), read-out: In Vitro -Log KB (converted). The procedure:
The leukotriene antagonist activity of the compounds of this invention is measured by the ability of the compounds to inhibit the leukotriene induced contraction of guinea pig tracheal tissues in vitro. The following methodology was employed:
In vitro: Guinea pig (adult male albino Hartley strain) tracheal spiral strips of approximate dimensions 2 to 3 mm cross-sectional with and 3.5 cm length were bathed in modified Krebs buffer in jacketed 10 ml tissue bath and continuously aerated with 95% O2 /5% CO2. The tissues were connected via silk suture to force displacement transducers for recording isometric tension. The tissues were equilibrated for 1 hr., pretreated for 15 minutes with meclofenamic acid (1 μM) to remove intrinsic prostaglandin responses, and then pretreated for an additional 30 minutes with either the test compound or vehicle control. A cumulative concentration-response curve for LTD4 on triplicate tissues was generated by successive increases in the bath concentration of the LTD4. In order to minimize intertissue variability, the contractions elicited by LTD4 were standardized as a percentage of the maximum response obtained to a reference agonist, carbachol (10 μM).
Calculations: The averages of the triplicate LTD4 concentration-response curves both in the presence and absence of the test compound were plotted on log graph paper. The concentration of LTD4 needed to elicit 30% of the contraction elicited by carbachol was measured and defined as the EC30. The -log KB value for the test compound was determined by the following equations: [formula]
The antagonist activity of representative compounds of this invention is tabulated below. The -log KB values were calculated from the above test protocol.

In the case of `CCCCCCCCC#CC(SCCC(=O)O)SCCC(=O)O` [R1 = C8 H17, m = 2, n = 2, 4,6-Dithia-5-(1-decynyl)-nonanedioic acid], the Kb is 10 µM.

Regarding `CCCCCCCCCCC#CC(SCC(=O)O)SCC(=O)O` [R1 = C10 H21, m = 1, n = 1, 3,5-dithia-4-(1-dodecynyl)-heptanedioic acid], the Kb was 5.01 µM.

`CCCCCCCCCCC#CC(SCCC(=O)O)SCCC(=O)O` [R1 = C10 H21, m = 2, n = 2, 4,6-dithia-5-(1-dodecynyl)-nonanedioic acid]: the Kb is 0.794 µM.

Take `CCCCCCCCCCCCC#CC(SCCC(=O)O)SCCC(=O)O` [R1 = C12 H25, m = 2, n = 2, 4,6-dithia-5-(1-tetradecynyl)-nonanedioic acid]: the Kb was 2 µM.

On to `CCCCCCCCCCC#CC(SCCCC(=O)O)SCCCC(=O)O` [R1 = C10 H21, m = 3, n = 3, 5,7-dithia-6-(1-dodecynyl)-undecanedioic acid], for which the Kb was 3.16 µM.
